In patent US11352350B2, “IRAK degraders and uses thereof” (Kymera Therapeutics, Inc., priority 2018, dated 2022):
Where two headings read alike, the source gives them in different places.

How the values were obtained:
IRAK4 [1] = biological target: T1, IRAK4 (Homo sapiens (Human), UniProt Q9NWZ3); experiment: IRAK4 MSD degradation in OCI-LY10; type: cell-based
Outline: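 Remaining IRAK4 quantified by electrochemiluminescent MSD sandwich assay with two anti-IRAK4 antibodies. Compounds were dosed as 8 concentrations in 1:3 steps from a 1 to 10 μM final top on OCI-LY10 cells, incubated 4 to 24 h at 37° C. under 5% CO2. DC50 fitted with a three-parameter logistic curve.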

IRAK4 [2] = biological target: T1, IRAK4; experiment: hPBMC IRAK4 degradation flow assay; type: cell-based; conditions: hPBMC monocyte
Method: hPBMC IRAK4 degradation flow assay. Frozen PBMCs were thawed into RPMI with 10% FBS and allowed to recover. On the same day as thawed, PBMCs were plated in 96 well plate, 90 uL per well. Compound plates were prepared and a 10 point, 5-fold dilution was performed with a final DMSO concentration of 0.1%. Compound 10 μL per well was added, sealed and incubated at 37° C., 5% C02 for 20 hours (for 4 hour treatment, compounds were prepared and added the following day). […] Cells were spun down and washed two times with PBS/0.5% BSA, aspirated to pellet and placed into −80° C. freezer until further processing for flow. On the flow run day, PBMC plates were thawed and samples were transferred to PCR plates. The pre-perm staining cocktail (CD3 Ax488/CD8 BUV805/CD14 BUV395/CD16/56 BV711/CD19 BV785) was added to samples and incubated for 30 minutes at room temperature. Samples were washed two times and permeabilized with methanol for 10 minutes at 4° C. […] Samples were washed two times with PBS/BSA and run on a BD LSRFortessa. Mononuclear cells are gated by SSCH/FSCH and single cells. Monocytes are then gated through CD14 positive gate and lymphocytes are gated through CD14 negative gate. To determine absolute DC50s and max degradation values, MFI values were normalized to DMSO max and 20 hour 10 μM min control. Twenty hour dose curves were calculated using a 4 parameter logistic regression curve fit, no constraints (Top doses were removed if hook effects were observed and the bottom was constrained to 0).

OCI-LY10 = experiment: CTG Cell Viability Assay - OCI-LY10; type: cell-based, human; conditions: OCI-LY10, 4 days, read-out: CTG Cell Viability Assay - OCI-LY10: Average external-IC50
Outline: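 Viability read by CellTiter-Glo luminescence after 4 days at 37° C under 5% CO2 with compound (top 10 μM final, 1:3 steps, 9 doses, DMSO 0.2%). Three-parameter logistic fit gave IC50.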

[3] = OCI-LY10, 4 hrs, read-out: IRAK4 MSD degradation in OCI-LY10 at 4 hrs: DC50
[4] = 20 hrs, read-out: IRAK4 degradation in hPBMC monocyte: DC50
[5] = OCI-LY10, 4 hrs, MSD, read-out: IRAK4 MSD degradation in OCI-LY10 at 4 hrs: Average external-Abs DC50
[6] = 20 hr, flow assay, read-out: IRAK4 degradation in hPBMC monocyte at 20 hr: Average external Abs DC50
[7] = OCI-LY10, 24 hrs, MSD, read-out: IRAK4 MSD degradation in OCI-LY10 at 24 hrs: Average external-Abs DC50

T1 sequence (Q9NWZ3 whole entry): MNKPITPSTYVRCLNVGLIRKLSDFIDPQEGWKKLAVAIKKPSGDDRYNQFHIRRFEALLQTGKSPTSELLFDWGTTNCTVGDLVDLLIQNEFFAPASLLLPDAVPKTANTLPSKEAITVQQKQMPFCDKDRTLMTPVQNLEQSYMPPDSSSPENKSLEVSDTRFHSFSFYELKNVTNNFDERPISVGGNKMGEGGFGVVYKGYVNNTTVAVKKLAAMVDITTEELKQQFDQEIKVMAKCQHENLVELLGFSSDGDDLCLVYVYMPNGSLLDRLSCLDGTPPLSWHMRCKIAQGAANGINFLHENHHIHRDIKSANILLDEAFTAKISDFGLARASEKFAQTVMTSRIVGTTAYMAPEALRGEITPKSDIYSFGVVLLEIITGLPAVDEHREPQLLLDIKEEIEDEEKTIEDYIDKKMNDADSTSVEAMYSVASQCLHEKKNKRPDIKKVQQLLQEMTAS

| SMILES | DC50 (IRAK4 [1]; [3]) | DC50 (IRAK4 [2]; [4]) | IC50 (OCI-LY10; Homo sapiens, OCI-Ly10, 96 h) | DC50 (IRAK4 [1]; [5]) | DC50 (IRAK4 [2]; [6]) | IC50 (OCI-LY10) | DC50 (IRAK4 [1]; [7]) |
| --- | --- | --- | --- | --- | --- | --- | --- |
| Cn1c(=O)n(C2CCC(=O)NC2=O)c2ccc(C#CCCCNC[C@H]3CC[C@H](n4cc(NC(=O)c5cnn6ccc(N7C[C@H]8C[C@@H]7CO8)nc56)c(C(F)F)n4)CC3)cc21 (stereo in doubt) [I-512, N-[3-(difluoromethyl)-1-[4-[[5-[1-(2,6-dioxo-3-piperidyl)-3-methyl-2-oxo-benzimidazol-5-yl]pent-4-ynylamino]methyl]cyclohexyl]pyrazol-4-yl]-5-(2-oxa-5-azabicyclo[2.2.1]heptan-5-yl)pyrazolo[1,5-a]pyrimidine-3-carboxamide] | > 1000 nM | 100 to 1000 nM | > 1000 nM | – | – | – | – |
| CN(CCCOCCCNc1cccc2c1C(=O)N(C1CCC(=O)NC1=O)C2=O)Cc1ccc(-n2cc(NC(=O)c3cnn4ccc(N5C[C@H]6C[C@@H]5CO6)nc34)c(C(F)F)n2)cc1 (stereo partly shown) [I-320] | – | – | – | > 1000 nM | 10 to 100 nM | > 1000 nM | – |
| CC(C)(O)c1cc2nn([C@H]3CC[C@H](CN4CCC5(CC4)CC(Nc4cccc6c4C(=O)N(C4CCC(=O)NC4=O)C6=O)C5)CC3)cc2cc1NC(=O)c1cccc(C(F)(F)F)n1 (stereo partly shown) [I-326] | – | – | < 50 nM | < 10 nM | < 10 nM | – | < 10 nM |
| O=C1CCC(N2C(=O)c3cccc(NCCCOCC4CCN(C[C@H]5CC[C@H](n6cc7cc(NC(=O)c8cccc(C(F)(F)F)n8)c(C(F)F)cc7n6)CC5)CC4)c3C2=O)C(=O)N1 (stereo partly shown) [I-327] | – | – | 500 to 1000 nM | 10 to 100 nM | 10 to 100 nM | – | 10 to 100 nM |
| CN(C[C@H]1CC[C@H](n2cc3cc(NC(=O)c4cccc(C(F)(F)F)n4)c(C(C)(C)O)cc3n2)CC1)C1CCC2(CC1)CC(CNc1cccc3c1C(=O)N(C1CCC(=O)NC1=O)C3=O)C2 (stereo partly shown) [I-331] | – | – | < 50 nM | 10 to 100 nM | 10 to 100 nM | – | < 10 nM |
| CN(CCCOCCCNc1cccc2c1C(=O)N(C1CCC(=O)NC1=O)C2=O)C[C@H]1CC[C@H](n2cc3cc(NC(=O)c4cccc(C(F)(F)F)n4)c(C(C)(C)O)cc3n2)CC1 (stereo partly shown) [I-333] | – | – | 100 to 500 nM | 10 to 100 nM | < 10 nM | – | 10 to 100 nM |
| CC(C)(O)c1cc2nn([C@H]3CC[C@H](CN4CCC(COCCCNc5cccc6c5C(=O)N(C5CCC(=O)NC5=O)C6=O)CC4)CC3)cc2cc1NC(=O)c1cccc(C(F)(F)F)n1 (stereo partly shown) [I-376] | – | – | 100 to 500 nM | 10 to 100 nM | < 10 nM | – | 10 to 100 nM |
| Cn1c(=O)n(C2CCC(=O)NC2=O)c2cccc(CCCN3CC4(CCN(C(=O)[C@H]5CC[C@H](n6cc(NC(=O)c7cnn8ccc(N9C[C@H]%10C[C@@H]9CO%10)nc78)c(C(F)F)n6)CC5)CC4)C3)c21 (stereo partly shown) [I-407] | – | – | > 1000 nM | < 10 nM | < 10 nM | – | – |
| Cn1c(=O)n(C2CCC(=O)NC2=O)c2cccc(CCC(=O)N3CC4(CCN(C[C@H]5CC[C@H](n6cc(NC(=O)c7cnn8ccc(N9C[C@H]%10C[C@@H]9CO%10)nc78)c(C(F)F)n6)CC5)CC4)C3)c21 (stereo partly shown) [I-410] | – | – | > 1000 nM | 10 to 100 nM | < 10 nM | – | – |
| O=C1CCC(N2C(=O)c3cccc(NCC4CCN(C[C@H]5CC[C@H](n6cc(NC(=O)c7cnn8ccc(N9C[C@H]%10CC9CO%10)nc78)c(C(F)F)n6)CC5)CC4)c3C2=O)C(=O)N1 (stereo partly shown) [I-442] | 100 to 1000 nM | 100 to 1000 nM | < 50 nM | – | – | – | – |
| C[C@@H]1CN(c2ccn3ncc(C(=O)Nc4cn([C@H]5CC[C@H](CN6CCC(OCC#Cc7cccc8c7n(C)c(=O)n8C7CCC(=O)NC7=O)CC6)CC5)nc4C(F)F)c3n2)C[C@@H](C)O1 (stereo partly shown) [I-527] | 10 to 100 nM | < 10 nM | – | – | – | – | – |
| C[C@@H]1CN(c2ccn3ncc(C(=O)Nc4cn([C@H]5CC[C@H](CN6CCC(OCC#Cc7cccc8c7n(C)c(=O)n8C7CCC(=O)NC7=O)CC6)CC5)nc4C(F)F)c3n2)C[C@H](C)O1 (stereo partly shown) [I-531] | 10 to 100 nM | < 10 nM | – | – | – | – | – |
| Cn1c(=O)n(C2CCC(=O)NC2=O)c2cccc(C#CCOC3CCN(C[C@H]4CC[C@H](n5cc(NC(=O)c6cnn7ccc(N8CCOC(C)(C)C8)nc67)c(C(F)F)n5)CC4)CC3)c21 (stereo partly shown) [I-533] | 10 to 100 nM | < 10 nM | – | – | – | – | – |
| Cn1c(=O)n(C2CCC(=O)NC2=O)c2cccc(C#CCC3CCN(C[C@H]4CC[C@H](C5N=C(NC(=O)c6cnn7ccc(N8C[C@H]9CC[C@@H](C8)O9)nc67)C(C(F)F)=N5)CC4)CC3)c21 (stereo partly shown) [I-534] | 10 to 100 nM | < 10 nM | – | – | – | – | – |
| Cn1c(=O)n(C2CCC(=O)NC2=O)c2cccc(CCCC3CCN(C[C@H]4CC[C@H](C5N=C(NC(=O)c6cnn7ccc(N8C[C@H]9CC[C@@H](C8)O9)nc67)C(C(F)F)=N5)CC4)CC3)c21 (stereo partly shown) [I-535] | < 10 nM | < 10 nM | – | – | – | – | – |
| C[C@H]1CN(c2ccn3ncc(C(=O)Nc4cn([C@H]5CC[C@H](CN6CCC(OCC#Cc7cccc8c7n(C)c(=O)n8C7CCC(=O)NC7=O)CC6)CC5)nc4C(F)F)c3n2)C[C@H](C)O1 (stereo partly shown) [I-536] | 10 to 100 nM | < 10 nM | – | – | – | – | – |
| Cn1c(=O)n(C2CCC(=O)NC2=O)c2cccc(CCCC3CCN(C[C@H]4CC[C@H](C5N=C(NC(=O)c6cnn7ccc(N8CCOC9(CCC9)C8)nc67)C(C(F)F)=N5)CC4)CC3)c21 (stereo partly shown) [I-538] | 10 to 100 nM | < 10 nM | – | – | – | – | – |
| Cn1c(=O)n(C2CCC(=O)NC2=O)c2cccc(CCCOC3CCN(C[C@H]4CC[C@H](n5cc(NC(=O)c6cnn7ccc(N8CCOC(C)(C)C8)nc67)c(C(F)F)n5)CC4)CC3)c21 (stereo partly shown) [I-539] | 10 to 100 nM | < 10 nM | – | – | – | – | – |
| Cn1c(=O)n(C2CCC(=O)NC2=O)c2cccc(C#CCOC3CCN(C[C@H]4CC[C@H](n5cc(NC(=O)c6cnn7ccc(N8CCOC9(CCC9)C8)nc67)c(C(F)F)n5)CC4)CC3)c21 (stereo partly shown) [I-541] | 10 to 100 nM | < 10 nM | – | – | – | – | – |
| Cn1c(=O)n(C2CCC(=O)NC2=O)c2cccc(CCCOC3CCN(C[C@H]4CC[C@H](n5cc(NC(=O)c6cnn7ccc(N8CCOC9(CCC9)C8)nc67)c(C(F)F)n5)CC4)CC3)c21 (stereo partly shown) [I-542] | 10 to 100 nM | < 10 nM | – | – | – | – | – |
| C[C@@H](CCc1cccc2c1n(C)c(=O)n2C1CCC(=O)NC1=O)OC1CCN(C[C@H]2CC[C@H](n3cc(NC(=O)c4cnn5ccc(N6C[C@H]7C[C@@H]6CO7)cc45)c(C(F)F)n3)CC2)CC1 (stereo partly shown) [I-545] | < 10 nM | < 10 nM | – | – | – | – | – |
| CN(CCCC#Cc1ccc2c(c1)n(C)c(=O)n2C1CCC(=O)NC1=O)C[C@H]1CC[C@H](n2cc(NC(=O)c3cnn4ccc(N5C[C@H]6C[C@@H]5CO6)nc34)c(C(F)F)n2)CC1 (stereo partly drawn) [I-546, 5-((1R,4R)-2-oxa-5-azabicyclo[2.2.1]heptan-5-yl)-N-(3-(difluoromethyl)-1-((1r,4R)-4-(((5-(1-(2,6-dioxopiperidin-3-yl)-3-methyl-2-oxo-2,3-dihydro-1H-benzo [d]imidazol-5-yl)pent-4-yn-1-yl)(methyl)amino)methyl)cyclohexyl)-1H-pyrazol-4-yl)pyrazolo[1,5-a] pyrimidine-3-carboxamide] | 100 to 1000 nM | 10 to 100 nM | – | – | – | – | – |
| CN1C(=O)C(C2CCC(=O)NC2=O)c2cc(C#CCOC3CCN(C[C@H]4CC[C@H](C5N=C(NC(=O)c6cnn7ccc(N8C[C@H]9C[C@@H]8CO9)nc67)C(C(F)F)=N5)CC4)CC3)ccc21 (stereo partly shown) [I-548] | 100 to 1000 nM | 100 to 1000 nM | – | – | – | – | – |
| CN(CCCC#Cc1cccc2c1n(C)c(=O)n2C1CCC(=O)NC1=O)C[C@H]1CC[C@H](n2cc(NC(=O)c3cnn4ccc(N5C[C@H]6C[C@@H]5CO6)nc34)c(C(F)F)n2)CC1 (stereo partly drawn) [I-550, 5-((1R,4R)-2-oxa-5-azabicyclo[2.2.1]heptan-5-yl)-N-(3-(difluoromethyl)-1-((1r,4R)-4-(((5-(1-(2,6-dioxopiperidin-3-yl)-3-methyl-2-oxo-2,3-dihydro-1H-benzo [d]imidazol-4-yl)pent-4-yn-1-yl)(methyl)amino)methyl)cyclohexyl)-1H-pyrazol-4-yl)pyrazolo[1,5-a] pyrimidine-3-carboxamide] | 10 to 100 nM | < 10 nM | – | – | – | – | – |
| C[C@@H]1CC(OCCc2cccc3c2n(C)c(=O)n3C2CCC(=O)NC2=O)C[C@H](C)N1C[C@H]1CC[C@H](n2cc(NC(=O)c3cnn4ccc(N5C[C@H]6C[C@@H]5CO6)nc34)c(C(F)F)n2)CC1 (stereo partly shown) [I-558] | – | < 10 nM | > 1000 nM | – | – | – | – |
| C[C@H](/C=C/c1cccc2c1n(C)c(=O)n2C1CCC(=O)NC1=O)OC1CCN(C[C@H]2CC[C@H](n3cc(NC(=O)c4cnn5ccc(N6C[C@H]7C[C@@H]6CO7)nc45)c(C(F)F)n3)CC2)CC1 (stereo partly shown) [I-559] | – | < 10 nM | > 1000 nM | – | – | – | – |
